Assay results reported in a melting point compilation (Tetko et al.; mined from patent text by program, amines drawn as free bases though some values may be those of a salt).

Row | melting point [°C] | Compound
1 | 256 to 257 | COc1cc2ncc(NC(=O)C=Cc3cc(OC)c(OC(C)=O)c(OC)c3)c(-c3ccccc3)c2cc1OC
2 | 95 to 97 | Cc1ccc(S(=O)(=O)Oc2ccc(C=O)cc2OS(=O)(=O)c2ccc(C)cc2)cc1
3 | 63 to 65 | COC(=O)c1ccc2cc(CCCO)oc2c1
4 | 119 to 120 | N#Cc1cc(C#N)cc(CO)c1
5 | 160 to 165 | Cn1cc(C2=C(c3c4n(c5ccccc35)CC(CN)CC4)C(=O)NC2=O)c2ccccc21 (stereo unspecified)
6 | 77 to 78 | CCn1c(=O)c2c(ncn2CCCCC(O)CO)n(CC)c1=O (stereo unspecified)
7 | 152 to 154 | CN(C)CCC(Cc1ccccc1C(=O)O)c1ccccc1 (stereo unspecified)
8 | 53 to 54 | CCC(=NOCc1cccs1)c1cc(Cl)ccc1NS(=O)(=O)C(F)(F)F
9 | 99 to 100 | COc1cccc(N(C)C(=S)Oc2ccc3c(c2)CCCC3)n1
10 | 285 to 287 | O=C(CCC12CCC(=O)N1C(=O)CC2)Nc1ccncc1
11 | 70 to 73 | CSc1ccc(-c2ccc(C(F)(F)F)cc2)nc1F
12 | 88 to 91 | CC(C)(C)OC(=O)N1CCC(c2ccc(Nc3nc4c(-c5ccc(F)cc5)cccn4n3)cc2)CC1
13 | 60 to 62 | COC(=O)C1CC2(CN1C(=O)CN(C)CC(=O)C(Cc1ccccc1)NC(=O)c1ccccc1)SCCS2 (stereo unspecified)
14 | 181 to 183 | CCc1oc2ccccc2c1C(=O)NCc1ccc2c(Br)c(OCC#N)ccc2c1
15 | 43 to 45 | CCOC(=O)c1scnc1Cl
16 | 239 to 245 | O=P(O)(O)Oc1cccc(-c2nc3sccn3c2-c2cccc(N[C@@H]3CCCN(S(=O)(=O)c4ccc(Cl)cc4)C3)c2)c1
17 | 175 to 176 | Cc1ncc([N+](=O)[O-])n1CCN1C(=O)c2cccc([N+](=O)[O-])c2C1=O
18 | 228 to 230 | CC(Cn1ncnn1)n1nnc2cc3c(=O)n(C)nnc3cc2c1=O (stereo unspecified)
19 | 278 to 280 | O=C1CCC(N2Cc3cc(CNC(=O)c4ccc(Cl)cc4)ccc3C2=O)C(=O)N1 (stereo unspecified)
20 | 124 to 126 | NC(=O)N(O)CCc1ccc(Sc2cccc(C(F)(F)F)c2)s1
21 | 131 to 132 | Cc1c(Br)c2c(c(C)c1NC(=O)OC(C)(C)C)C(=O)C(C)(C)O2
22 | > 275 | Cc1nn(C)c2nc(N)nc(N)c2c1=O
23 | 199 to 201 | Cc1ccc(-c2ccc(/C=C/C(=O)Nc3ccc(CN(C)C4CCOCC4)cc3)s2)cc1
24 | 145 to 150 | CCOCCn1c(N2CCCN(CCC3(c4ccccc4)CCN(C(=O)c4cc(NC(C)=O)ccc4OC)C3)CC2)nc2ccccc21 (stereo unspecified)
25 | 109 to 110 | Cc1cc(COC2CCCCO2)nc(N)n1 (stereo unspecified)

Row | melting point [°C] | Compound
26 | 162 to 163 | CCS(=O)(=O)N[C@H](C(=O)NCc1ccc(OCC#Cc2ccc(Cl)cc2)c(OC)c1)C(C)C
27 | 140 to 142 | COC(=O)C=Cc1cc(NC2CCN(Cc3ccccc3)CC2)ccc1C
28 | 121 to 122 | Cc1oc(-c2ccccc2)nc1COc1ccc(CO)cn1
29 | 115 to 116 | CCN1CCc2ccc(C(=O)CCC(=O)N3CCC(c4ccc(Cl)cc4)CC3)cc2C1
30 | 205 to 207 | COc1ncnc2nc(-c3ccccc3)cnc12
31 | 54 to 55 | CC(C)(C)OC(=O)NCCCC(=O)NCCC(=O)OCc1ccccc1
32 | 124 to 126 | O=C1CSC(=S)N1c1ccc(Cl)cc1
33 | 151 to 153 | CC(C)(C)c1cc(C2=NOC(CCOc3ccc([N+](=O)[O-])cc3)C2)cc(C(C)(C)C)c1O (stereo unspecified)
34 | 62 to 64 | COc1cc(Cl)c(Nc2nc(C)ccc2S(=O)(=O)c2ccc(OCc3ccccc3OC)cc2)cc1F
35 | 99 to 101 | CC(=O)c1cc2cc(C(C)(C)C)ccc2o1
36 | 122 to 124 | O=C1OC(CO)CN1c1ccccc1 (stereo unspecified)
37 | 138 to 140 | FC(F)(F)Oc1ccc(-c2coc3ccc(-c4nnc(N5CCNCC5)o4)cc23)cc1
38 | 193 to 196 | COc1cc(C(=O)O)c(N)cc1C
39 | 86 to 92 | CCCN(CCCNc1ncc(Cc2ccc3c(c2)OCO3)c(=O)[nH]1)c1ccccn1
40 | 198 to 200 | CC(C)(C)NC(=O)C1CCC2C3CC=C4C=C(C#N)CCC4(C)C3CCC12C (stereo unspecified)
41 | 111 to 113 | O=C(Nc1c(Cl)cncc1Cl)c1ccc(SCF)c(OC2CCCC2)c1
42 | 174 | COc1ccc(C(=O)Nc2ccc3ccc(Oc4c(C)cccc4C)nc3n2)cc1
43 | 180 to 190 | c1cc2c3c(c1)C[C@@H]1CCC[C@@H]1N3CCNC2 (relative stereo)
44 | 153 to 154 | CCOC(=O)c1cn(C2CC2)c2c(Cl)c(F)c(F)c(C)c2c1=O
45 | 214 to 215 | O=C(O)C1Cc2cc3c(-c4ccccc4)noc3c(Cl)c2O1 (stereo unspecified)
46 | 115 to 118 | COc1ccccc1NC(=O)Nc1nc(N2CCN(c3ccccc3OC(C)C)CC2)nc(N(CCC(=O)O)Cc2ccc(Cl)c(Cl)c2)n1
47 | 50 to 52 | CC(=O)c1ccc(CC(=O)OC(C)(C)C)cc1
48 | 151 to 153 | COc1cc(NC(C)=O)c(Cl)cc1C(=O)NC1CC2CCCCN2C1 (stereo unspecified)
49 | 154 to 158 | COCO[C@H]1C[C@H]2OC(C)(C)OC[C@]23C2C(CC[C@]3(O)C1)[C@@]1(OCOC)CC[C@H](CO)[C@@]1(C)C[C@H]2OCOC (stereo partly specified)
50 | 342 | O=C(Nc1ccccc1)c1ccc(C(=O)Nc2nnc(-c3cc(Cl)cc(Cl)c3O)s2)cc1

Continued, molecule first:

Row | Compound | melting point [°C]
51 | CN(C)c1ccc(NC(=S)NCC(C)(C)C)cc1 | 174 to 176
52 | O=C(O)C1Cc2cc3c(-c4ccc(F)cc4)noc3c(Cl)c2O1 (stereo unspecified) | 225 to 226
53 | CCc1c(C)cc(C(=O)NC(C(=O)OC)c2cccs2)c(=O)n1Cc1ccc(F)cc1 (stereo unspecified) | 182 to 184
54 | CC1(C)Cc2c(Cl)cccc2C=[N+]1[O-] | 104 to 106
55 | COc1ccc2c(CCN3CC=C(c4c[nH]c5cc(F)ccc45)CC3)coc2c1 | 181
56 | CS(=O)(=O)c1ccc(-n2nc(C(F)(F)F)cc2-c2ccc(Br)cc2)cc1F | 64 to 65
57 | CS(=O)c1ccc(CI)cc1 (stereo unspecified) | 80 to 81
58 | Cc1cccc(-c2nc(N)sc2-c2ccnc(-c3ccc(OCCN4CCCC4)cc3)c2)n1 | 176 to 178
59 | N#Cc1ccc2[nH]c(-c3ccc(-c4ccc(C#N)c(F)c4)cc3)nc2c1 | 302 to 305
60 | CCCN1CCCC2c3nc(N)sc3CCC21 (stereo unspecified) | 163 to 181
61 | CCN1C(=O)N(c2cc(OC)cc(OC)c2F)Cc2cnc(NC3CCC(O)CC3)nc21 (stereo unspecified) | 198 to 204
62 | CC(=O)Oc1c(C)c(C)c2c(c1C)CCC(C)(C(=O)N1CCN(c3cc(N4CCCC4)nc(N4CCCC4)n3)CC1)O2 (stereo unspecified) | 191 to 192
63 | CCC(CC)c1ccc(Cl)c2nc3n(c12)CC(C)N3c1cnc(N(C)C)cc1C (stereo unspecified) | 204 to 206
64 | COC1(c2nc3c(F)cccc3s2)C=CC(=NS(=O)(=O)c2ccc(C)cc2)C=C1 (stereo unspecified) | 176
65 | C#Cc1cnn2c(C)cc(-c3ccc(C(F)(F)F)cc3)nc12 | 89 to 90
66 | Cc1nc(-c2ccc(Cl)cc2)c2nc(-c3ccccc3)cc-2[nH]1 | 281 to 283
67 | CCOC(=O)c1nccn1Cc1ccc(Cl)cc1N | 94 to 96
68 | COc1cc2c(c3c1OC(C)(C)C3)C(c1cccc(C#N)c1)=NCC2(C)C | 178 to 180
69 | COc1ccccc1N1CCN(C(=O)CCCN2CC=C(c3c[nH]c4cc(F)ccc34)CC2)CC1 | 118 to 120
70 | CC(C)n1c(=O)[nH]c2ncc(-c3ccc(O)cc3)nc21 | 323 to 324
71 | O=C1CN=C(c2ccccc2F)c2cc(Cl)ccc2N1CC(O)CO (stereo unspecified) | 117 to 118
72 | CCC(=O)NCC=C1CCc2ccc3nc(C)oc3c21 | 214 to 216
73 | O=c1nc(-c2cccc(Oc3ccccc3)n2)sc2ccccc12 | 161

Row | Compound | melting point [°C]
74 | CC12CCC(=O)C(N)=C1CCC1C2CCC2(C)C(OC3CC3)CCC12 (stereo unspecified) | 85 to 88
75 | COC(=O)CCC(C)C1CCC2C3C(O)CC4CC(NC(=O)CNC(=O)OC(C)(C)C)CCC4(C)C3CC(O)C12C (stereo unspecified) | 110 to 114
76 | CN1CCN(c2cccc3ccc(NC(=O)OCc4ccccc4)cc23)CC1 | 143 to 144
77 | COc1ccc2c(c1)C(=O)OC2=O | 89 to 94
78 | CC(O)(C(=O)Nc1ccc(S(=O)(=O)c2ccccc2)cc1[N+](=O)[O-])C(F)(F)F (stereo unspecified) | 191 to 192
79 | COc1ccc2c(c1)cc(-c1cc3cccnc3[nH]1)n2C | 234 to 235
80 | CCOC(=O)c1oc2cccc(OC)c2c1C | 67 to 69
81 | O=C(Cl)c1ccccc1NC(=O)c1ccccc1-c1ccccc1 | 118 to 120
82 | O=C(O)c1ccc2[nH]cc(-c3cc4cccnc4[nH]3)c2c1 | > 300
83 | CCCc1c(OCCCOc2ccc(C(=O)O)cc2Br)ccc(C(C)=O)c1OC(C)=O | 125 to 127
84 | CCCCOC(=O)/C=C/c1ccc2c(=O)n(CC(C)C)c(CNC(=O)OC(C)(C)C)c(-c3ccc(Cl)cc3)c2c1 | 149 to 150
85 | CN(C)S(=O)(=O)n1cnc(S(=O)(=O)NCc2ccc(Cl)cc2)c1 | 171 to 173
86 | CCCNC(=O)Nc1ccc(C(=O)c2c(C)c(OCCOC)c3ccccn23)cc1C(=O)OC | 125
87 | CC1(C)CCC(C)(C)c2cc(-c3cc(-c4ccc(C(=O)O)cc4)ccc3OCCCCCCCO)ccc21 | 168 to 172
88 | O=C1CNc2ncc(I)cc2N1Cc1cccc(F)c1C(F)(F)F | > 200
89 | CCC(CC)COc1cccc2nc(C)c(C(=O)O)c(N)c12 | 145 to 151
90 | Nc1ccc2c(c1-c1n[nH]cc1Cl)OC(F)(F)O2 | 195
91 | OC(CNCCCc1ccc(OCCOCCc2ccccc2)cc1)COc1ccccc1 (racemic) | 76 to 78
92 | COC(=O)C(C(=O)c1ccc(Cn2ccc3ccc(NC(=O)CC4CCCC4)cc32)c(OC)c1)S(=O)(=O)c1ccccc1 (stereo unspecified) | 93 to 98
93 | CCCn1nc(C(C)C)c(C(N)=O)c1Cc1ccc(-c2ccccc2-c2nnn[nH]2)cc1 | 156 to 159
94 | CCOC(=O)c1cnn(-c2nc(-c3cccc(C(F)(F)F)c3)cs2)c1C | 138
95 | COc1ccc(C2=NN(c3ccc(S(N)(=O)=O)cc3)C(=O)[C@H]3CC=CC[C@@H]23)cc1OC (relative stereo) | 181 to 183
96 | CCCCCCc1c(C(=O)O)sc2ccsc12 | 111 to 112
